Results taken from patent US20190314436A1, “PHARMACEUTICAL COMPOSITION FOR PREVENTION OR TREATMENT OF LIVER CANCER AND HEALTH FUNCTIONAL FOOD” (KOREA BIO MEDICAL SCIENCE INSTITUTE CO., LTD, priority 2016, published 2019).

How the values were obtained:
Huh7 cells = experiment: MTT assay, liver cancer growth inhibition / cell death; assay type: cell-based; conditions: 48 hours
Procedure: Hepatoma cell proliferation inhibitory efficacies of the Ulmi cortex extract (WSY-0), Nardostachys jatamansi extract (WSY-1), Lophatheri Herba extract (WSY-3) and Torilis japonica extract (WSY-37) in target cells or mice treated with the same were validated by MTT assay and effective concentrations thereof were determined.
In vitro liver cancer growth inhibitory abilities of four (4) natural products (WSY-0, WSY-1, WSY-3, and WSY-37) were verified by the MTT assay.
With respect to the 4 types of natural products, total 8 types of extracts were prepared through hydrothermal extraction and ethanol extraction, respectively. These extracts were identified to have in vitro liver cancer growth inhibitory ability in 5 types of liver cancer cell lines (Huh7, HepG2, Hep3B, PLC/PRF5, and SK-hep1).
Further, in treatment using each of three ethanol extracts in an amount of 200 μg/mL except WSY-37, the cell growth inhibitory ability was identified in 4 types of liver cancer cell lines except Hep G2 cells.
When treating Huh7 cells with sorafenib for 48 hours, it was identified that about 60% cell death was induced with 2 μM of sorafenib and about 80% cell death was induced with 4 μM of sorefenib, respectively (see FIG. 1).

[1] = test system: Hepa1-6 hepatocellular carcinoma; experiment: Orthotopic HCC model, Hepa1-6 via liver portal vein; assay type: in vivo, C57/BL6 mouse; conditions: WSY-1 100 mpk, sorafenib 30 mpk, oral daily
Procedure: In the present study, based on results of the primary in vivo efficacy validation experiment and preliminary experiment, the following experiment conditions were set up and the secondary validation experiment was implemented.
Administered cell/administration route: 5×10^5 Hepa1-6-GFP cells/liver portal vein
Dose/administration route/dosing frequency: WSY-1 100 mpk, sorafenib 30 mpk/oral administration/daily
5×10^5 Hepa1-6GFP cells were administered to the liver portal vein of each 6-week-old C57/BL6 mouse. 3 days later, the mice were randomly grouped, followed by administration of WSY-1 and sorafenib for 3 weeks.
During 3 weeks administration period, death (mortality) due to tumorigenesis was induced in the following experimental groups. After termination of the administration, survived mice were sacrificed and analyzed for anti-cancer effects.

liver cancer = conditions: cited from earlier work
[2] = test system: HCCLM3 hepatocellular carcinoma; experiment: Orthotopic HCC model, HCCLM3 via liver portal vein; assay type: in vivo, Balb/c nu/nu mouse; conditions: 30 mpk oral daily, 8 weeks
Excerpt: Establishment of Hepatocellular Carcinoma (HCC) in Small Animal Models
In order to induce HCC in a small animal model, a method of injecting chemicals such as DEN or a method of directly injecting HCC cells into the model is used. Although DEN treatment is convenient in view of experiment, this process entails a disadvantage in that a long period of time (about 50 weeks) is required for generation of tumors (‘tumorigenesis’). Therefore, in order to efficiently verify in vivo anticancer effects of natural extracts for a short period of time, an orthotopic implantation model of directly injecting HCC cells into the liver of a mouse was implemented.
The orthotopic implantation model is a method of inducing formation of cancer in liver tissues by directly injecting HCC cell lines such as Huh7 or HCCLM3 into hepatic portal vein or mesenchyma (liver lobe) of the mouse, and takes about 8 weeks to form tumors, which is considerably shorter than DEN, thus being properly used.
Efficacies of the Ulmi cortex extract (WSY-0), Nardostachys jatamansi extract (WSY-1), Lophatheri Herba extract (WSY-3) or Torilis Japonica extract (WSY-37) on HCC formation and suppression thereof have been validated through liver gross, H & E staining and serum analysis. […]

HCCLM3 cells = experiment: Cell death in hyper-metastatic HCC cell line; assay type: cell-based; conditions: HCCLM3, 16 μM, 48 hours
Excerpt: By treatment of HCCLM3 cells using WSY-1 or WSY-3 extract in ethanol to identify cell death effects, in vitro anti-cancer effects of the natural extracts on cell lines having different sorafenib sensitivities were investigated.

Structure (SMILES): CNC(=O)c1cc(Oc2ccc(NC(=O)Nc3ccc(Cl)c(C(F)(F)F)c3)cc2)ccn1 [sorafenib]
- cell death (Huh7 cells; Huh7, 2 μM): about 60%
- cell death (Huh7 cells; Huh7, 4 μM): about 80%
- death (mortality) due to tumorigenesis ([1]; 3 weeks administration): 4 out of 13
- liver weight/body weight vs mice injected with Hepa1-6 cells only ([1]; 3 weeks): significantly decreased
- patients with partial response (liver cancer; 137 patients, Phase 2 clinical trials): ≤ 5%
- extension of life compared to placebo dose group (liver cancer; orally administered): ~3 months
- liver weight/body weight vs mice with HCCLM3 only [2]: decreased
- apoptotic effects (HCCLM3 cells): ≤ 50%
